What was measured:
Test in all cases: drug sensitivity score (DSS) from 5-point dose-response viability curve (DSS (area-under-curve based score)); higher = more sensitive (stronger growth inhibition or killing); extreme values may be limits of the assay
Conditions in all cases: exposure time: 72 h; concentration range: 5 concentrations over 10,000-fold range
CAOV3 = tested on: CAOV3
Method in brief: (§1)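 Viability of ovarian cancer and normal ovarian cell lines was read by CellTiter-Glo luminescence after 3 days at 37°C and 5% CO2 in 384-well plates holding 1,500 cells per well. Drugs had been dispensed in DMSO or water with an Echo 550 at five concentrations over a 10,000-fold range. Using Breeze software, a drug sensitivity score was assigned per cell line and drug, higher scores meaning more sensitive, and zero means no response.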

COV318 = tested on: COV318
Method in brief: as §1

COV362 = tested on: COV362
Method in brief: as §1

HOSE1C = tested on: HOSE1C
Method in brief: as §1

HOSE2C = tested on: HOSE2C
Method in brief: as §1

JHOS2 = tested on: JHOS2
Method in brief: as §1

Kuramochi = tested on: Kuramochi
Method in brief: as §1

OV90 = tested on: OV90
Method in brief: as §1

OVCAR4 = tested on: OVCAR4
Method in brief: as §1

OVCAR5 = tested on: OVCAR5
Method in brief: as §1

OVCAR8 = tested on: OVCAR8
Method in brief: as §1

Ovsaho = tested on: Ovsaho
Method in brief: as §1

Structure (SMILES)	drug sensitivity score (CAOV3)	drug sensitivity score (COV318)	drug sensitivity score (COV362)	drug sensitivity score (HOSE1C)	drug sensitivity score (HOSE2C)	drug sensitivity score (JHOS2)	drug sensitivity score (Kuramochi)	drug sensitivity score (OV90)	drug sensitivity score (OVCAR4)	drug sensitivity score (OVCAR5)	drug sensitivity score (OVCAR8)	drug sensitivity score (Ovsaho)
Clc1ccc(Nc2nnc(Cc3ccncc3)c3ccccc23)cc1 [Vatalanib]	0	0	0	0	0	0	0	0	0	0	0	0.7
Oc1nc(-c2ccc(C(F)(F)F)cc2)nc2c1CSCC2 [XAV-939]	0	0	0	0	0	0.1	1.5	0	3.6	0	0	2.3
NC(=O)c1cccc2cn(-c3ccc([C@@H]4CCCNC4)cc3)nc12 [Niraparib]	3.4	1.1	0	3.9	1.9	1.5	1	1.7	0	2.6	4.1	2.1
Cc1cnc(-c2ccccc2C(C)C)nc1NCc1ccc(-n2ccnn2)cc1 [ML323]	0.3	0.1	0	0	0	0	0	0.1	1.5	0	0	0
CN1CCN(C2CCC(n3cc(-c4ccc(Oc5ccccc5)cc4)c4c(N)ncnc43)CC2)CC1 (stereo not drawn)	11.4	6.9	11.5	7.8	9.3	7.1	12.6	10.3	7.6	15.1	9.4	15.6
CN(C)C(=N)NC(=N)N [Metformin]	0	0	0	0	0	0	0	0	0	0	0	0
COc1cc2ncnc(Nc3ccc(F)c(Cl)c3)c2cc1NC(=O)/C=C/CN1CCCCC1 [Dacomitinib]	8	0.2	0.2	1.1	0	0.8	2.4	0.1	1.3	5	2.1	2.6
C[C@@H]1CN(CC(=O)Nc2ccc3c(c2)Cc2cccc(-c4cc(=O)cc(N5CCOCC5)o4)c2S3)C[C@H](C)O1	1.1	0	1.2	0	0	0	0.5	2.7	0.7	1.6	1.9	3.4
CC(=O)c1cc2c(o1)C(=O)c1ccccc1C2=O [Napabucasin]	18.2	16.2	12.4	28.9	24.2	18.6	16.7	17.9	19	21.3	16.3	17.3
COc1cc2/c(=N/c3ccc(Br)cc3F)nc[nH]c2cc1OCC1CCN(C)CC1 [Vandetanib]	1.7	0.6	1.3	0	0	0.6	2.9	0	1.2	1.5	0	4.7
Cc1cnc(Nc2ccc(OCCN3CCCC3)cc2)nc1Nc1cccc(S(=O)(=O)NC(C)(C)C)c1 [Fedratinib]	6.5	3.7	6.1	7.1	8.5	5.3	7.7	8.8	5.2	7.2	7.1	7.4
Nc1ncn([C@H]2C[C@H](O)[C@@H](CO)O2)c(=O)n1 [Decitabine]	2.3	0	0	0	0.5	0	0	0	2.8	2.4	2.8	0
Nc1nc2cc(-c3ccc4ncc(C(=O)N5CCOCC5)n4c3)ccc2o1 [Serabelisib]	2.9	0	0	0	5.1	0	0	0.1	0	1.8	0	0.8
CN1CCN(C2CCN(C(=O)Nc3cc(Oc4ccc(NC(=O)C5(C(=O)Nc6ccc(F)cc6)CC5)c(F)c4)ccn3)CC2)CC1 [Golvatinib]	0	0	0	0	0	0	0.8	1.4	0	0.1	0	0

From the supplement of paper PMC11616607
